Data as given in ChEMBL document CHEMBL3244259, “Synthesis and anti-herpes simplex activity of analogues of phosphonoacetic acid” (J Med Chem, 1977).
Activity calls are given as the source filed them. No cut-off for these calls is given here.

Columns and labels:
[1] = Inhibition of HSV type-2 DNA polymerase after 30 mins by liquid scintillation counting analysis in presence of dATP, dCTP, dGTP and [3H]-TTP; parameters: species or system Human alphaherpesvirus 2
Human alphaherpesvirus 2 [2] = test: Antiviral activity against Human herpesvirus 2 infected in CF mouse assessed as suppression of virus-induced dermatitis administered topically as 2% aqueous solution twice daily for 6 days measured after day 17; assay type: functional, organism-based
Human alphaherpesvirus 2 [3] = test: Antiviral activity against Human herpesvirus 2 infected in CF mouse assessed as suppression of virus-induced dermatitis at 100 to 1000 mg/kg/day, po administered for 6 days measured after day 17; assay type: functional, organism-based
Human alphaherpesvirus 2 [4] = test: Antiviral activity against Human herpesvirus 2 infected in CF mouse assessed as suppression of virus-induced dermatitis at 800 mg/kg/day, po administered for 6 days measured after day 17; assay type: functional, organism-based

SMILES	I50 [1]	Activity (Human alphaherpesvirus 2 [2])	Activity (Human alphaherpesvirus 2 [3])	Activity (Human alphaherpesvirus 2 [4])
CCCOC(=O)CP(=O)(O)O	0.16 µg/mL	Active	Active	–
COc1ccc(P(=O)(O)CC(=O)O)cc1	150 µg/mL	inactive	–	inactive
CCCCCCCCOC(=O)CP(=O)(O)O	0.26 µg/mL	–	–	–
CCCCCCOP(=O)(O)CC(=O)O	–	Active	–	Active
CCCOP(=O)(O)CC(=O)O	200 µg/mL	–	–	–
O=C(CP(=O)(O)O)OC1CCCCC1	49 µg/mL	–	–	–
CP(=O)(O)CC(=O)O	145 µg/mL	inactive	–	–
O=C(CP(=O)(O)O)OCc1ccccc1	40 µg/mL	–	–	–
CC(C)(C)OC(=O)CP(=O)(O)O	3.9 µg/mL	–	–	–
COP(=O)(O)CC(=O)O	19.9 µg/mL	–	–	–
O=C(O)CP(=O)([O-])[O-].[Na+].[Na+] [DISODIUM CARBOXYMETHYLPHOSPHONATE]	0.22 µg/mL	–	–	–
O=C(O)CP(=O)(O)c1ccccc1	200 µg/mL	inactive	–	inactive
